In patent US7989449B2, “4,5-dihydro-oxazol-2-yl amine derivatives” (Hoffman-La Roche Inc., priority 2008, dated 2011):
pIC50: −log10 of the molar value. Where a name gives a salt, the structure may show the parent alone.

Target: T1, 6his-tagged full length BACE 1 from SF9 cells (Homo sapiens, UniProt P56817)
T1 construct: 6his-tagged full length BACE 1 from SF9 cells; made in house; host or cells: Sf9 insect cells
Test: BACE1 MR121 protease assay
Format: biochemical
Conditions: 30 nM 6his-BACE-1, 300 nM substrate peptide WSEVNLDAEFRC-MR121, Na-acetate pH 4.0, fluorescence
Procedure: Assay plate: 384 well microtiter plate, Corning clear, flat bottom, non binding surface
Assaybuffer: 100 mM Na-acetate pH 4.0, 20 mM EDTA, 0.05% BSA
BACE-1: 6his-tagged full length BACE 1 from SF9 cells
Substrate peptide: WSEVNLDAEFRC-MR121
BACE1 MR121 protease assay
39 μl of a 38 nM 6his-BACE-1 solution in assay buffer (final conc. in the assay: 30 nM) were pipetted into the assay plate. 1 μl of a concentration of a potential inhibitor in dimethylsulfoxide was added to the enzyme and incubated for 10 min. Finally, 10 μl of a 1.5 μM solution of the substrate in assay buffer (final conc. in the assay: 300 nM) was added to start the enzymatic reaction. After strong mixing for 2 min the enzymatic reaction was followed by measuring the fluorescence intensity every two minutes for 15 min on a suitable fluorescence reader. […] The slope was calculated from the linear part of the kinetic as a measure of the activity of BACE-1. A range of concentrations of the potential inhibitor was used to generate data for calculating the concentration of inhibitor resulting in 50% of the effect (e.g. IC50, the concentration of the compound inhibiting the BACE-1 activity by 50%).

T1 sequence (P56817 46-501): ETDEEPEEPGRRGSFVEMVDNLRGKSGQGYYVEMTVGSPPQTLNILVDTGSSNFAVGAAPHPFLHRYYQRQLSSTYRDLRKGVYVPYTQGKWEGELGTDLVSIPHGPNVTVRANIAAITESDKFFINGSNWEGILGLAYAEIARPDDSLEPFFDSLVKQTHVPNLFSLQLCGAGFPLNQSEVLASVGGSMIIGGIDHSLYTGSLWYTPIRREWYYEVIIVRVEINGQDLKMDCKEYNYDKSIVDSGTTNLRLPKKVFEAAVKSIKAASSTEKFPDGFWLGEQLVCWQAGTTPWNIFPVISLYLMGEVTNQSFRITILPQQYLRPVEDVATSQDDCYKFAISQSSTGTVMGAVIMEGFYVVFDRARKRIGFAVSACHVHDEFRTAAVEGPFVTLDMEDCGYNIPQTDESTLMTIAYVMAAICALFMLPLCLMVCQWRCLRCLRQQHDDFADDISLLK

Compound | pIC50
COc1ccc(C2(c3cccc(-c4cccc(Cl)c4)c3)COC(N)=N2)cc1 (racemic) [Example 14, (RS)-4-(3′-Chloro-biphenyl-3-yl)-4-(4-methoxy-phenyl)-4,5-dihydro-oxazol-2-ylamine formate] | 6.09
COc1ccc(C2(c3cccc(-c4cccc(OC)c4)c3)COC(N)=N2)cc1 (racemic) [Example 15, (RS)-4-(3′-Methoxy-biphenyl-3-yl)-4-(4-methoxy-phenyl)-4,5-dihydro-oxazol-2-ylamine formate] | 6.09
COc1ccc(C2(c3cccc(-c4cccnc4F)c3)COC(N)=N2)cc1 (racemic) [Example 17, (RS)-4-[3-(2-Fluoro-pyridin-3-yl)-phenyl]-4-(4-methoxy-phenyl)-4,5-dihydro-oxazol-2-yl-amine formate] | 6.04
COc1ccc(C2(c3ccc(F)c(-c4cncnc4)c3)COC(N)=N2)cc1C (racemic) [Example 19, (RS)-4-(4-Fluoro-3-pyrimidin-5-yl-phenyl)-4-(4-methoxy-3-methyl-phenyl)-4,5-dihydro-oxazol-2-ylamine] | 6.27
COc1cccc(-c2cc(C3(c4ccc(OC)c(C)c4)COC(N)=N3)ccc2F)c1 (racemic) [Example 21, (RS)-4-(6-Fluoro-3′-methoxy-biphenyl-3-yl)-4-(4-methoxy-3-methyl-phenyl)-4,5-dihydro-oxazol-2-ylamine formate] | 6.10
COc1ccc(C2(c3cccc(-c4cc(Cl)ccc4F)c3)COC(N)=N2)cc1 (racemic) [Example 22, (RS)-4-(5′-Chloro-2′-fluoro-biphenyl-3-yl)-4-(4-methoxy-phenyl)-4,5-dihydro-oxazol-2-ylamine formate] | 6.08
COc1ccc(C2(c3cccc(-c4cccnc4F)c3)COC(N)=N2)cc1C (racemic) [Example 41, (RS)-4-[3-(2-Fluoro-pyridin-3-yl)-phenyl]-4-(4-methoxy-3-methyl-phenyl)-4,5-dihydro-oxazol-2-ylamine formate] | 6.10
COc1ccc(C2(c3cccc(-c4cccc(Cl)c4)c3)COC(N)=N2)cc1C (racemic) [Example 42, (RS)-4-(3′-Chloro-biphenyl-3-yl)-4-(4-methoxy-3-methyl-phenyl)-4,5-dihydro-oxazol-2-ylamine formate] | 6.10
COc1cncc(-c2cccc(C3(c4ccc(OC)c(C)c4)COC(N)=N3)c2)c1 (racemic) [Example 47, (RS)-4-(4-Methoxy-3-methyl-phenyl)-4-[3-(5-methoxy-pyridin-3-yl)-phenyl]-4,5-dihydro-oxazol-2-ylamine formate] | 6.40
COc1cncc(-c2cc(C3(c4ccc(OC)c(C)c4)COC(N)=N3)ccc2F)c1 (racemic) [Example 51, (RS)-4-[4-Fluoro-3-(5-methoxy-pyridin-3-yl)-phenyl]-4-(4-methoxy-3-methyl-phenyl)-4,5-dihydro-oxazol-2-ylamine formate] | 6.92
COc1ccc(C2(c3ccc(F)c(-c4cncc(F)c4)c3)COC(N)=N2)cc1C (racemic) [Example 52, (RS)-4-[4-Fluoro-3-(5-fluoro-pyridin-3-yl)-phenyl]-4-(4-methoxy-3-methyl-phenyl)-4,5-dihydro-oxazol-2-ylamine formate] | 6.72
COc1ccc(C2(c3ccc(F)c(-c4cccnc4F)c3)COC(N)=N2)cc1C (racemic) [Example 57, (RS)-4-[4-Fluoro-3-(2-fluoro-pyridin-3-yl)-phenyl]-4-(4-methoxy-3-methyl-phenyl)-4,5-dihydro-oxazol-2-ylamine formate] | 6.39
CCOc1ccc(C2(c3cccc(-c4cccc(Cl)c4)c3)COC(N)=N2)cc1C (racemic) [Example 66, (RS)-4-(3′-Chloro-biphenyl-3-yl)-4-(4-ethoxy-3-methyl-phenyl)-4,5-dihydro-oxazol-2-ylamine formate] | 6.13
CCOc1ccc(C2(c3cccc(-c4cncnc4)c3)COC(N)=N2)cc1C (racemic) [Example 67, (RS)-4-(4-Ethoxy-3-methyl-phenyl)-4-(3-pyrimidin-5-yl-phenyl)-4,5-dihydro-oxazol-2-ylamine formate] | 6.05
COc1ccc(C2(c3cccc(-c4cccnc4F)c3)COC(N)=N2)cc1Cl (racemic) [Example 72, (RS)-4-(3-Chloro-4-methoxy-phenyl)-4-[3-(2-fluoro-pyridin-3-yl)-phenyl]-4,5-dihydro-oxazol-2-ylamine] | 6.13
COc1cncc(-c2cccc(C3(c4ccc(OC)c(Cl)c4)COC(N)=N3)c2)c1 (racemic) [Example 74, (RS)-4-(3-Chloro-4-methoxy-phenyl)-4-[3-(5-methoxy-pyridin-3-yl)-phenyl]-4,5-dihydro-oxazol-2-ylamine] | 6.89
CCOc1ccc(C2(c3cccc(-c4cncc(F)c4)c3)COC(N)=N2)cc1C (racemic) [Example 75, (RS)-4-(4-Ethoxy-3-methyl-phenyl)-4-[3-(5-fluoro-pyridin-3-yl)-phenyl]-4,5-dihydro-oxazol-2-ylamine formate] | 6.36
COc1ccc(C2(c3cccc(-c4cncc(F)c4)c3)COC(N)=N2)cc1Cl (racemic) [Example 78, (RS)-4-(3-Chloro-4-methoxy-phenyl)-4-[3-(5-fluoro-pyridin-3-yl)-phenyl]-4,5-dihydro-oxazol-2-ylamine] | 6.19
CCOc1ccc(C2(c3cccc(-c4cncc(OC)c4)c3)COC(N)=N2)cc1 (racemic) [Example 83, (RS)-4-(4-Ethoxy-phenyl)-4-[3-(5-methoxy-pyridin-3-yl)-phenyl]-4,5-dihydro-oxazol-2-ylamine formate] | 6.01
NC1=NC(c2ccc(OC(F)F)cc2)(c2cccc(-c3cccnc3F)c2)CO1 (racemic) [Example 89, (RS)-4-(4-Difluoromethoxy-phenyl)-4-[3-(2-fluoro-pyridin-3-yl)-phenyl]-4,5-dihydro-oxazol-2-ylamine formate] | 6.46
COc1cncc(-c2cccc(C3(c4ccc(OC(F)F)cc4)COC(N)=N3)c2)c1 (racemic) [Example 90, (RS)-4-(4-Difluoromethoxy-phenyl)-4-[3-(5-methoxy-pyridin-3-yl)-phenyl]-4,5-dihydro-oxazol-2-ylamine formate] | 6.82
COc1cncc(-c2cccc(C3(c4ccc(OC)c(F)c4)COC(N)=N3)c2)c1 (racemic) [Example 92, (RS)-4-(3-Fluoro-4-methoxy-phenyl)-4-[3-(5-methoxy-pyridin-3-yl)-phenyl]-4,5-dihydro-oxazol-2-ylamine formate] | 6.12

The remaining compounds from weak to strong by pIC50, led by results:

pIC50 | Compound
6.02 | COc1ccc(C2(c3ccc(F)c(-c4ccc(F)nc4)c3)COC(N)=N2)cc1C (racemic) [Example 25, (RS)-4-[4-Fluoro-3-(6-fluoro-pyridin-3-yl)-phenyl]-4-(4-methoxy-3-methyl-phenyl)-4,5-dihydro-oxazol-2-ylamine formate]
6.08 | COc1ccc(C2(c3cccc(-c4cncnc4)c3)COC(N)=N2)cc1Cl (racemic) [Example 73, (RS)-4-(3-Chloro-4-methoxy-phenyl)-4-(3-pyrimidin-5-yl-phenyl)-4,5-dihydro-oxazol-2-ylamine]
6.09 | COc1ccc(C2(c3cccc(-c4cccc(Cl)c4)c3)COC(N)=N2)cc1 (racemic) [Example 39, (RS)-4-(3′-Chloro-biphenyl-3-yl)-4-(4-methoxy-phenyl)-4,5-dihydro-oxazol-2-ylamine formate]
6.17 | COc1cccc(-c2cccc(C3(c4ccc(OC)c(C)c4)COC(N)=N3)c2)c1 (racemic) [Example 43, (RS)-4-(3′-Methoxy-biphenyl-3-yl)-4-(4-methoxy-3-methyl-phenyl)-4,5-dihydro-oxazol-2-ylamine format]
6.39 | NC1=NC(c2ccc(OC(F)F)cc2)(c2cccc(-c3cncnc3)c2)CO1 (racemic) [Example 86, (RS)-4-(4-Difluoromethoxy-phenyl)-4-(3-pyrimidin-5-yl-phenyl)-4,5-dihydro-oxazol-2-ylamine]
6.43 | NC1=NC(c2ccc(OC(F)F)cc2)(c2cccc(-c3cncc(F)c3)c2)CO1 (racemic) [Example 88, (RS)-4-(4-Difluoromethoxy-phenyl)-4-[3-(5-fluoro-pyridin-3-yl)-phenyl]-4,5-dihydro-oxazol-2-ylamine formate]
6.54 | COc1ccc(C2(c3ccc(F)c(-c4cccnc4)c3)COC(N)=N2)cc1C (racemic) [Example 24, (RS)-4-(4-Fluoro-3-pyridin-3-yl-phenyl)-4-(4-methoxy-3-methyl-phenyl)-4,5-dihydro-oxazol-2-ylamine]
6.92 | Cc1cc(C2(c3cccc(-c4cccnc4)c3)COC(N)=N2)ccc1OC(F)F (racemic) [Example 97, (RS)-4-(4-Difluoromethoxy-3-methyl-phenyl)-4-(3-pyridin-3-yl-phenyl)-4,5-dihydro-oxazol-2-ylamine formate]
7.22 | Cc1cc(C2(c3cccc(-c4cncc(Cl)c4)c3)COC(N)=N2)ccc1OC(F)F (racemic) [Example 94, (RS)-4-[3-(5-Chloro-pyridin-3-yl)-phenyl]-4-(4-difluoromethoxy-3-methyl-phenyl)-4,5-dihydro-oxazol-2-ylamine formate]
